Residue numbers refer to the chain shown, from its start.
How the values were obtained:
Test in all cases: biochemical
[1] = biological target: T1, Amaranthus mutant PPO (AMARE) (Amaranthus tuberculatus, UniProt Q0NZW7)
T1 sequence (Q0NZW7 1-533): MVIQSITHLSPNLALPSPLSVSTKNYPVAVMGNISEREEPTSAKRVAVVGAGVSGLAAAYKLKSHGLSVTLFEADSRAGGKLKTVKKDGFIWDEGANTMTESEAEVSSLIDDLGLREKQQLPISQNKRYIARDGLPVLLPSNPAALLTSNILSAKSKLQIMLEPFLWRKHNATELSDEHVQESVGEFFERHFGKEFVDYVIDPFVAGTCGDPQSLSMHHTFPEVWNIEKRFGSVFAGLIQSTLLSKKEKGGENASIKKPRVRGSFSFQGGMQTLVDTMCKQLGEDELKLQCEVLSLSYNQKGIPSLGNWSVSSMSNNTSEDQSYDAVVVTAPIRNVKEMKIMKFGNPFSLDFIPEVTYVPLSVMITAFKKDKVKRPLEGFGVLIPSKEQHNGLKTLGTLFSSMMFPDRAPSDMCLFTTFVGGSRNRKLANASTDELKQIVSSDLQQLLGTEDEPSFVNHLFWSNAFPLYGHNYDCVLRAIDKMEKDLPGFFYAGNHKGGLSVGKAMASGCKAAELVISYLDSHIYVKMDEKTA

[2] = biological target: T2, Amaranthus mutant PPO (AMARE) (Amaranthus tuberculatus, UniProt Q0NZW9, F420L/R128L)
T2 sequence (Q0NZW9 1-534 R128L/F420L): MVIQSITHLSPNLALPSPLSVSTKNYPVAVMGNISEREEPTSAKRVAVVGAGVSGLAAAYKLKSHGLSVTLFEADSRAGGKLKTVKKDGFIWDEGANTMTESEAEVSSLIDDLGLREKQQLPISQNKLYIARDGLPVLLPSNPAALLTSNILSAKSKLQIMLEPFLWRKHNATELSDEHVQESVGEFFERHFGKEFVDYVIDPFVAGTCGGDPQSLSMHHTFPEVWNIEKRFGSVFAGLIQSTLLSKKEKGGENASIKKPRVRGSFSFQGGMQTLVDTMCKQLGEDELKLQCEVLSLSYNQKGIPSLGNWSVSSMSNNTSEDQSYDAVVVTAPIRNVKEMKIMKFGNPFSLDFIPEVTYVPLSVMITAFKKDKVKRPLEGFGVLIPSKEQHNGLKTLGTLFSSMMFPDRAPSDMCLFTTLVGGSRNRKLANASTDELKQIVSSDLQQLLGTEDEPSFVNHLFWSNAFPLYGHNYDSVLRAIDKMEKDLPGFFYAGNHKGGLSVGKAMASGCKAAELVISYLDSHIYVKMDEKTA

[3] = biological target: T3, Amaranthus mutant PPO (AMARE) (Amaranthus tuberculatus, UniProt Q0NZW9, F420V/R128A)
T3 sequence (Q0NZW9 1-534 R128A/F420V): T2 sequence (Q0NZW9 1-534 R128L/F420L) with L128A, L420V

[4] = biological target: T4, Amaranthus mutant PPO (AMARE) (Amaranthus tuberculatus, UniProt Q0NZW9, F420M/R128A)
T4 sequence (Q0NZW9 1-534 R128A/F420M): T2 sequence (Q0NZW9 1-534 R128L/F420L) with L128A, L420M

[5] = biological target: T5, Amaranthus mutant PPO (AMARE) (Amaranthus tuberculatus, UniProt Q0NZW9, R128A)
T5 sequence (Q0NZW9 1-534 R128A): T2 sequence (Q0NZW9 1-534 R128L/F420L) with L128A, L420F

SMILES	IC50 [1] [nM]	IC50 [2] [nM]	IC50 [3] [nM]	IC50 [4] [nM]	IC50 [5] [nM]
C#CCN1C(=O)C(F)(F)Oc2cc(F)c(-n3c(=O)n(C)c(=S)n(C)c3=O)cc21 [BAS 850H]	2.12	1710	25	–	–
CC(C)N(C)S(=O)(=O)NC(=O)c1cc(-n2c(=O)cc(C(F)(F)F)n(C)c2=O)c(F)cc1Cl [saflufenacil]	1600	> 10000	> 10000	> 10000	129

Source: patent US10392630B2, “Plants having increased tolerance to herbicides” (BASF AGRO B.V., priority 2013, dated 2019)
